{"source": "patent US20100284993A1", "about": "“Enhancing the Efficacy of Anti-Infective Therapeutics” (priority 2007, published 2010)", "origin": "cited, not measured here", "key": {"[1]": {"biological_target": "peptidyl prolyl isomerases of the protozoan parasite Trypanosoma cruzi (Trypanosoma cruzi, UniProt Q09734)", "sequence (Q09734 30-196)": "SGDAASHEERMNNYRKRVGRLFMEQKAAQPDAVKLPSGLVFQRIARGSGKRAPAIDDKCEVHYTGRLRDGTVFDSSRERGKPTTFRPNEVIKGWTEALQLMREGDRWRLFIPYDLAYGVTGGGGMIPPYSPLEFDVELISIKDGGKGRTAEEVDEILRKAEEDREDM"}, "[2]": {"parameters": "unit not given here", "settings": "in vivo"}, "[3]": {"settings": "in vivo"}}, "data": [{"smiles": "CC[C@@H]1/C=C(\\C)[C@@H](O)[C@H](C)C[C@H](OC)[C@H]2O[C@@](O)(C(=O)C(=O)N3CCCC[C@H]3C(=O)O[C@H](/C(C)=C/[C@@H]3CC[C@@H](O)[C@H](OC)C3)[C@H](C)[C@@H](O)CC1=O)[C@H](C)C[C@@H]2OC", "note": "[L-685,818]", "values": [{"measurement": "binding preference for T. cruzi peptidyl prolyl isomerases over human FKBP", "setting": "[1]", "result": "preferentially binds"}]}, {"smiles": "C[C@@H](O)[C@H]1C(=O)N2C(C(=O)O)=C(S[C@@H]3CN[C@H](C(=O)Nc4cccc(C(=O)O)c4)C3)[C@H](C)[C@H]12", "note": "[ertapenem]", "values": [{"measurement": "effectiveness against Pseudomonas aeruginosa", "setting": "Pseudomonas aeruginosa", "result": "not effective"}, {"measurement": "half life", "setting": "[2]", "result": "four"}]}, {"smiles": "C=CC[C@@H]1/C=C(\\C)C[C@H](C)C[C@H](OC)[C@H]2O[C@@](O)(C(=O)C(=O)N3CCCC[C@H]3C(=O)O[C@H](/C(C)=C/[C@@H]3CC[C@@H](O)[C@H](OC)C3)[C@H](C)[C@@H](O)CC1=O)[C@H](C)C[C@@H]2OC", "note": "[FK506]", "values": [{"measurement": "distribution into protected cellular compartments in the blood", "setting": "[3]", "result": "72-98%"}]}, {"smiles": "C[C@@H](O)[C@H]1C(=O)N2C(C(=O)O)=C(S[C@@H]3CN[C@H](C(=O)N(C)C)C3)[C@H](C)[C@H]12", "note": "[meropenem]", "values": [{"measurement": "elimination half life", "setting": "[2]", "result": "one"}]}]}
